Where a name gives a salt, the structure may show the parent alone.
How the values were obtained:
[1] = test system: Candida albicans ATCC 10231; assay: MIC / microbial growth test, 96-well microplate, optical density at 620 nm, with FIC index; type: cell-based
Excerpt: (§1) FIC Index=([…]) with: • MICa with B: minimum concentration of product A in the combination A+B which makes it possible to obtain an inhibitory effect • MICb with A: minimum concentration of product B in the combination A+B which makes it possible to obtain an inhibitory effect. • MICa: minimum inhibitory concentration of product A alone. • MICb: minimum inhibitory concentration of product B alone. […] As regards the combinations tested, MICa with b and MICb with a are the respective concentrations of A and of B in the combinations which make it possible to obtain a microbial growth percentage of less than or equal to 25%. When the FIC index value is less than or equal to 1, it is considered that the combination of test compounds has a synergistic effect. The combinations of compounds A and B were tested on the following strains: Aspergillus niger and Candida albicans. […] A 96-well microplate and an incubation temperature of 32.5° C. are used. The incubation time of the microplate is: • from 24 hours to 48 hours aerobically for Aspergillus niger, • from 18 hours to 24 hours aerobically for Candida albicans. A 10% (weight/volume) stock solution was prepared by mixing 1 g of compound in 9 ml of aqueous 1%o agar solution. […] 50 μL of each of the daughter solutions obtained containing compound A or B1 or B2 are added to the microplate wells. 100 μL of Sabouraud liquid nutrient broth seeded with the strain Aspergillus niger and 50 μL of aqueous 1%o agar solution are also added thereto. 50 μL of each of the daughter solutions obtained containing compound A and 50 μL of each of the daughter solutions obtained containing compound B1 or B2 are added to the microplate wells. 100 μL of Sabouraud liquid nutrient broth seeded at double concentration with the strain Aspergillus niger are also added thereto. A positive microbial growth control was also prepared. […] This control corresponds to 100 μL of double concentration sterile Sabouraud liquid nutrient broth+100 μL of double concentration compound A or B1 or B2.

[2] = test system: Aspergillus niger ATCC 6275; assay: as above; type: cell-based
Excerpt: as §1, with “B2. […] In the two cases (test and control), the inoculum represents the concentration of the strain Aspergillus niger present in the final volume of the wells (200 μL) and is between 2 and 6×10^5 cfu/ml of Aspergillus niger.” for “B2.”

[3] = Candida albicans, growth <= 25%
[4] = Aspergillus niger, growth <= 25%

CCOc1cc(CCC(C)=O)ccc1O [A, 4-(3-ethoxy-4-hydroxyphenyl)butan-2-one]
microbial growth percentage ([1]; 0.025 A + 0 B1 (weight %)): 63%
microbial growth percentage ([1]; 0.025 A + 0 B2 (weight %)): 83%
microbial growth percentage ([1]; 0.05 A + 0 B1 (weight %)): 47%
microbial growth percentage ([1]; 0.05 A + 0 B2 (weight %)): 70%
microbial growth percentage ([1]; 0.1 A + 0 B1 (weight %)): 22%
microbial growth percentage ([1]; 0.1 A + 0 B2 (weight %)): 50%
microbial growth percentage ([1]; 0.2 A + 0 B2 (weight %)): 10%
% MIC of A alone ([1]; Candida albicans, series with B1, growth <= 25%): 0.1%
microbial growth percentage ([2]; 0.025 A + 0 B2 (weight %)): 228%
microbial growth percentage ([2]; 0.05 A + 0 B2 (weight %)): 109%
microbial growth percentage ([2]; 0.0625 A + 0 B1 (weight %)): 83%
microbial growth percentage ([2]; 0.0625 A + 0 B3 (weight %)): 85%
microbial growth percentage ([2]; 0.1 A + 0 B2 (weight %)): 73%
microbial growth percentage ([2]; 0.125 A + 0 B1 (weight %)): 49%
microbial growth percentage ([2]; 0.125 A + 0 B3 (weight %)): 48%
microbial growth percentage ([2]; 0.2 A + 0 B2 (weight %)): 72%
microbial growth percentage ([2]; 0.25 A + 0 B1 (weight %)): 5%
microbial growth percentage ([2]; 0.25 A + 0 B3 (weight %)): 7%
microbial growth percentage ([2]; 0.4 A + 0 B2 (weight %)): 6%
% MIC of A alone ([2]; Aspergillus niger, series with B1, growth <= 25%): 0.25%
% MIC of A alone ([2]; Aspergillus niger, series with B2, growth <= 25%): 0.4%
% MIC of A alone ([2]; Aspergillus niger, series with B3, growth <= 25%): 0.25%

N=C(NCCCCCCNC(=N)NC(=N)Nc1ccc(Cl)cc1)NC(=N)Nc1ccc(Cl)cc1.O=C(O)[C@H](O)[C@@H](O)[C@H](O)[C@H](O)CO.O=C(O)[C@H](O)[C@@H](O)[C@H](O)[C@H](O)CO [B1, chlorhexidine digluconate, reference compound]
microbial growth percentage ([1]; 0 A + 0.00025 B1 (weight %)): 59%
microbial growth percentage ([1]; 0 A + 0.0005 B1 (weight %)): 32%
microbial growth percentage ([1]; 0 A + 0.001 B1 (weight %)): 3%
% MIC of B1 alone [1, 3]: 0.001%
microbial growth percentage ([2]; 0 A + 0.0025 B1 (weight %)): 98%
microbial growth percentage ([2]; 0 A + 0.005 B1 (weight %)): 98%
microbial growth percentage ([2]; 0 A + 0.01 B1 (weight %)): 7%
% MIC of B1 alone [2, 4]: 0.01%

[H]/N=C(\N/C(=N/[H])NCCCCCCNC(=N)NC(=N)Nc1ccc(Cl)cc1)Nc1ccc(Cl)cc1 [B2, chlorhexidine hydrochloride, reference compound]
microbial growth percentage ([1]; 0 A + 0.00025 B2 (weight %)): 82%
microbial growth percentage ([1]; 0 A + 0.0005 B2 (weight %)): 64%
microbial growth percentage ([1]; 0 A + 0.001 B2 (weight %)): 14%
% MIC of B2 alone [1, 3]: 0.001%
microbial growth percentage ([2]; 0 A + 0.025 B2 (weight %)): 194%
microbial growth percentage ([2]; 0 A + 0.05 B2 (weight %)): 121%
microbial growth percentage ([2]; 0 A + 0.1 B2 (weight %)): 137%
microbial growth percentage ([2]; 0 A + 0.2 B2 (weight %)): 2%
% MIC of B2 alone [2, 4]: 0.02%

Source: US10932465B2, “Antimicrobial mixture containing 4-(3-ethoxy-4-hydroxyphenyl)butan-2-one and a diol, and cosmetic composition containing same” (L'OREAL, priority 2017, dated 2021)
